Activity calls are given as the source filed them.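 The calls were made as follows: active = signal drops, with AC50 within twice each sample's top valid tested dose; inconclusive = flat curve at 30 to 70% inhibition, or poor fit; inactive = signal moves against the expected drop, plus the rest.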
Biological target: Mitogen-activated protein kinase 3 (Homo sapiens) (UniProt P27361)
Assay: ERK1 kinase inhibitors, dose response, selectivity assay for Dyrk1A inhibitor NFAT project, biochemical, ADP-Glo luminescence, dry powder, set 2 (AID 651659)
Conditions: 120 min

Mitogen-activated protein kinase 3 (Homo sapiens), sequence (P27361 whole entry, looked up): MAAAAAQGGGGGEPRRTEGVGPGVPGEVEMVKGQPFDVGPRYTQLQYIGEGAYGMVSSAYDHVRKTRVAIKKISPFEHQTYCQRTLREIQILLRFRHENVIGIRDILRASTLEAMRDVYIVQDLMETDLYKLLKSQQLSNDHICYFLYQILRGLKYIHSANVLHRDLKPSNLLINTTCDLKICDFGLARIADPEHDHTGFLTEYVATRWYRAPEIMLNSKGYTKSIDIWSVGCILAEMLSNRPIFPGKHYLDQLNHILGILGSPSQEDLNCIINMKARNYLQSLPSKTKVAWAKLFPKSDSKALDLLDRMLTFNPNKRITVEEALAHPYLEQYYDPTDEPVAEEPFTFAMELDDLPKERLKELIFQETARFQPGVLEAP

| SMILES | activity change, negative = inhibition (at 10 µM (top of the series)) | other results |
| --- | --- | --- |
| COc1ccc2nc(NC(=O)C3CCN(S(=O)(=O)c4cccc5nsnc45)CC3)sc2c1 | inactive |  |
| CN(CC(=O)Nc1nc2ccc(F)cc2s1)S(=O)(=O)c1ccc(Cl)cc1 |  | AC50: > 20 µM (inactive) |
| COc1ccc(OC)c(CNC(=O)c2sc3ccccc3c2Cl)c1 | inactive |  |
| CCOc1ccc2nc(NC(=O)COc3ccc(Cl)c(OC)c3)sc2c1 | inactive |  |
| COc1ccc(OC)c(C2=Nn3c(nnc3-c3ccncc3)SC2)c1 | inactive |  |
| CCCCN(c1nc2ccccc2s1)S(=O)(=O)c1ccc(Cl)cc1 | inactive |  |
| COc1ccc(OC)c(C2=Nn3c(nnc3-c3ccccc3)SC2)c1 | inactive |  |
| O=C(NCc1ccccc1)c1sc2ccccc2c1Cl | inactive |  |
| COc1ccc2c(Cl)c(C(=O)NCc3ccccc3)sc2c1 | inactive |  |
| COc1ccc2c(Cl)c(C(N)=O)sc2c1 | inactive |  |
| CN(CC(=O)Nc1nccs1)S(=O)(=O)c1ccc(Cl)cc1 | inactive |  |
| Cc1ccc(S(=O)(=O)N(C)CC(=O)Nc2nc3ccccc3s2)cc1 | inactive |  |
| COc1ccc2nc(NC(=O)C3CCN(S(=O)(=O)c4ccc(C)cc4)CC3)sc2c1 | inactive |  |
| CN(CC(=O)Nc1nc2ccccc2s1)S(=O)(=O)c1ccccc1 | inactive |  |
| COc1ccc2nc(NC(=O)C3CCN(S(=O)(=O)c4cccc5nonc45)CC3)sc2c1 | inactive |  |
| COc1ccc2c(Cl)c(C(=O)NC(C)C)sc2c1 | inactive |  |
| Cc1csc(NC(=O)C2CCCN(S(=O)(=O)c3cccc4nonc34)C2)n1 (stereo not given) | inactive |  |
| COc1ccc(-c2csc(NC(=O)CSCC(=O)N3CCCC3)n2)cc1 |  | AC50: > 20 µM (inactive) |
| CCOc1ccc2nc(NC(=O)C3CCCN(S(=O)(=O)c4cccc5cccnc45)C3)sc2c1 (stereo not given) | inactive |  |
| Cc1ccc(S(=O)(=O)N(C)CC(=O)Nc2nc3ccc(Cl)cc3s2)cc1C | inactive |  |
| C=CCn1cnc2scc(-c3ccc(OC)cc3)c2c1=O | inactive |  |
| COc1cccc(C2=Nn3c(nnc3-c3ccccc3)SC2)c1 | inactive |  |
| COc1ccc2c(Cl)c(C(=O)NCc3cccnc3)sc2c1 | inactive |  |

| SMILES | activity change, negative = inhibition (at 10 µM (top of the series)) | other results |
| --- | --- | --- |
| COc1ccc(C2=Nn3c(nnc3-c3cccnc3)SC2)cc1 | inactive |  |
| COc1ccc2nc(NC(=O)C3CCCN(S(=O)(=O)c4cccc5nsnc45)C3)sc2c1 (stereo not given) | inactive |  |
| CN(CC(=O)Nc1nc2ccc(Cl)cc2s1)S(=O)(=O)c1ccc(C#N)cc1 |  | AC50: 5.91 µM |
| Clc1ccc(CSc2nc(Nc3ccc4c(c3)OCO4)c3ccccc3n2)cc1 | inactive |  |
| O=C(NCc1ccco1)c1sc2ccccc2c1Cl | inactive |  |
| Cc1sc(NC(=O)CSCc2ccccc2)nc1-c1ccccc1 | inactive |  |
| COc1ccc2nc(NC(=O)C3CCCN(S(=O)(=O)c4cccc5nonc45)C3)sc2c1 (stereo not given) | inactive |  |
| Cc1cccc2sc(NC(=O)CN(C)S(=O)(=O)c3ccc(Cl)cc3)nc12 | inactive |  |
| COc1ccc(CNC(=O)c2sc3ccccc3c2Cl)cc1 | inactive |  |
| COc1ccc(C2=Nn3c(nnc3-c3cccnc3)SC2)cc1OC | inactive |  |
| COc1ccc(NC(=O)C2CCCN(S(=O)(=O)c3cccc4nonc34)C2)cc1 (stereo not given) | inactive |  |
| COc1ccc2nc(NC(=O)C3CCN(S(=O)(=O)c4cccnc4)CC3)sc2c1 | inactive |  |
| Cc1ccccc1S(=O)(=O)Cc1ccc(C(=O)NC(C)c2ccc3c(c2)OCCO3)o1 (stereo not given) | inactive |  |
| CN(CC(=O)Nc1nc2ccc(Cl)cc2s1)S(=O)(=O)c1ccc(Cl)cc1 | inactive |  |
| CC(C)n1cnc2cc(NCc3cccc4ccccc34)ccc21 |  | activity change, negative = inhibition (at 1.1 µM (top of the series)): inactive |
| COc1ccc2nc(NC(=O)CN(C)S(=O)(=O)c3ccc(F)cc3)sc2c1 | inactive |  |
| COc1ccc(C2=Nn3c(nnc3-c3ccncc3)SC2)cc1 | inactive |  |
| COc1ccc2nc(NC(=O)C3CCCN(S(=O)(=O)c4cccc5cccnc45)C3)sc2c1 (stereo not given) | inactive |  |
| COc1ccc(OC)c(C2=Nn3c(nnc3-c3ccccn3)SC2)c1 | inactive |  |
| CN(CC(=O)Nc1nc2ccccc2s1)S(=O)(=O)c1ccc(Cl)cc1 | inactive |  |
| COc1ccc2c(c1)[nH]c1c(C)nccc12 | inactive |  |
| COc1ccc(S(=O)(=O)N2CCCC(C(=O)Nc3nc4ccccc4s3)C2)cc1 (stereo not given) | inactive |  |

From PubChem BioAssay AID651659 (Broad Institute, 2012)
